Source: patent US20150105252A1, “SUBSTITUTED PYRAZOLES AS HERBICIDES” (E I DU PONT DE NEMOURS AND COMPANY, priority 2013, published 2015)

Legend:
barnyardgrass [1] = test: Test A preemergence; format: in vivo, Echinochloa crus-galli; conditions: 0 to 100 scale
Summary of the method: (§1)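 Ratings express plant response from 0 (no effect) to 100 (complete control), judged visually against untreated controls after approximately 10 days in the greenhouse. Preemergence applications were made as directed soil sprays onto seeded loam–sand mix, and postemergence applications onto 2–10 cm plants at one- to two-leaf stage.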

crabgrass, large [2] = test: Test A preemergence; format: in vivo, Digitaria sanguinalis; conditions: 0 to 100 scale
Summary of the method: as §1

foxtail, giant [3] = test: Test A preemergence; format: in vivo, Setaria faberii; conditions: 0 to 100 scale
Summary of the method: as §1

morningglory [4] = test: Test A preemergence; format: in vivo, Ipomoea spp.; conditions: 0 to 100 scale
Summary of the method: as §1

pigweed [5] = test: Test A preemergence; format: in vivo, Amaranthus retroflexus; conditions: 0 to 100 scale
Summary of the method: as §1

velvetleaf [6] = test: Test A preemergence; format: in vivo, Abutilon theophrasti; conditions: 0 to 100 scale
Summary of the method: as §1

wheat [7] = test: Test A preemergence; format: in vivo, Triticum aestivum; conditions: 0 to 100 scale
Summary of the method: as §1

corn [8] = test: Test A preemergence; format: in vivo, Zea mays; conditions: 0 to 100 scale
Summary of the method: as §1

barnyardgrass [9] = test: Test A postemergence; format: in vivo, Echinochloa crus-galli; conditions: Postemergence
Summary of the method: as §1

crabgrass, large [10] = test: Test A postemergence; format: in vivo, Digitaria sanguinalis
Summary of the method: as §1

foxtail, giant [11] = test: Test A postemergence; format: in vivo, Setaria faberii
Summary of the method: as §1

morningglory [12] = test: Test A postemergence; format: in vivo, Ipomoea spp.
Summary of the method: as §1

pigweed [13] = test: Test A postemergence; format: in vivo, Amaranthus retroflexus
Summary of the method: as §1

velvetleaf [14] = test: Test A postemergence; format: in vivo, Abutilon theophrasti
Summary of the method: as §1

wheat [15] = test: Test A postemergence; format: in vivo, Triticum aestivum
Summary of the method: as §1

corn [16] = test: Test A postemergence; format: in vivo, Zea mays
Summary of the method: as §1

rice = test: Test C flooded paddy test; format: in vivo, Oryza sativa; conditions: Flood
Excerpt: At time of treatment, test pots were flooded to 3 cm above the soil surface, treated by application of test compounds directly to the paddy water, and then maintained at that water depth for the duration of the test. Treated plants and controls were maintained in a greenhouse for 13 to 15 days, after which time all species were compared to controls and visually evaluated. […] A dash (-) response means no test result.

sedge, umbrella = test: Test C flooded paddy test; format: in vivo, Cyperus difformis; conditions: Flood
Summary of the method: (§2)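 Greenhouse pots flooded to 3 cm above soil at time of treatment received compound via the water, which stayed at that level.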

ducksalad = test: Test C flooded paddy test; format: in vivo, Heteranthera limosa; conditions: Flood
Summary of the method: as §2

barnyardgrass [17] = test: Test C flooded paddy test; format: in vivo, Echinochloa crus-galli; conditions: Flood
Summary of the method: as §2

[18] = Preemergence, 500 g ai/ha, 0 no effect, 100 complete control
[19] = preemergence, 125 g ai/ha, visual injury, approx. 10 days
[20] = Postemergence, 500 g ai/ha, visual rating after approx. 10 days, 0 to 100 scale (0 no effect, 100 complete control)
[21] = postemergence, 125 g ai/ha, about 10 days, visual rating on 0 to 100 scale (0 no effect, 100 complete control)
[22] = 31 g ai/ha, scale 0 to 100 (0 no effect, 100 complete control)
[23] = 62 g ai/ha, scale 0 to 100 (0 no effect, 100 complete control)
[24] = Preemergence, 1000 g ai/ha, 0 no effect, 100 complete control
[25] = 1000 g ai/ha, visual rating after approx. 10 days, 0 to 100 scale (0 no effect, 100 complete control)
[26] = Postemergence, 1000 g ai/ha, visual rating after approx. 10 days, 0 to 100 scale (0 no effect, 100 complete control)

CCNC(=O)c1cc(C)n(Cc2cccc(OC(F)(F)F)c2)n1 [Compound 4]
Barnyardgrass plant response rating (barnyardgrass [1]; [18]): 50 | Barnyardgrass plant response rating (barnyardgrass [1]; [19]): 0 | Crabgrass, Large plant response rating (crabgrass, large [2]; [18]): 90 | Crabgrass, Large plant response rating (crabgrass, large [2]; [19]): 40 | Foxtail, Giant plant response rating (foxtail, giant [3]; [18]): 60 | Foxtail, Giant plant response rating (foxtail, giant [3]; [19]): 0 | Morningglory plant response rating (morningglory [4]; [18]): 20 | Morningglory plant response rating (morningglory [4]; [19]): 0 | Pigweed plant response rating (pigweed [5]; [18]): 100 | Pigweed plant response rating (pigweed [5]; [19]): 50 | Velvetleaf plant response rating (velvetleaf [6]; [18]): 10 | Velvetleaf plant response rating (velvetleaf [6]; [19]): 0 | Wheat plant response rating (wheat [7]; [19]): 0 | Corn plant response rating (corn [8]; [18]): 0 | Corn plant response rating (corn [8]; [19]): 0 | Barnyardgrass plant response rating (barnyardgrass [9]; 125 g ai/ha, 0 to 100 scale, 0 no effect, 100 complete control): 10 | Barnyardgrass plant response rating (barnyardgrass [9]; 500 g ai/ha, visual rating after approx. 10 days, 0 to 100 scale (0 no effect, 100 complete control)): 40 | Crabgrass, Large plant response rating (crabgrass, large [10]; [20]): 50 | Crabgrass, Large plant response rating (crabgrass, large [10]; [21]): 20 | Foxtail, Giant plant response rating (foxtail, giant [11]; [20]): 30 | Foxtail, Giant plant response rating (foxtail, giant [11]; [21]): 10 | Morningglory plant response rating (morningglory [12]; [20]): 90 | Morningglory plant response rating (morningglory [12]; [21]): 30 | Pigweed plant response rating (pigweed [13]; [20]): 80 | Pigweed plant response rating (pigweed [13]; [21]): 70 | Velvetleaf plant response rating (velvetleaf [14]; [20]): 30 | Velvetleaf plant response rating (velvetleaf [14]; [21]): 10 | Wheat plant response rating (wheat [15]; [20]): 0 | Wheat plant response rating (wheat [15]; [21]): 0 | Corn plant response rating (corn [16]; [20]): 40 | Corn plant response rating (corn [16]; [21]): 10 | Plant response rating, Rice (rice; [22]): 0 | Plant response rating, Rice (rice; [23]): 0 | Plant response rating, Rice (rice; 125 g ai/ha, scale 0 to 100): 0 | Plant response rating, Rice (rice; 250 g ai/ha, scale 0 to 100): 0 | Plant response rating, Sedge, Umbrella (sedge, umbrella; [22]): 0 | Plant response rating, Sedge, Umbrella (sedge, umbrella; [23]): 0 | Plant response rating, Sedge, Umbrella (sedge, umbrella; 125 g ai/ha, scale 0 to 100): 0 | Plant response rating, Sedge, Umbrella (sedge, umbrella; 250 g ai/ha, scale 0 to 100): 60 | Plant response rating, Ducksalad (ducksalad; [22]): 0 | Plant response rating, Ducksalad (ducksalad; [23]): 40 | Plant response rating, Ducksalad (ducksalad; 125 g ai/ha, scale 0 to 100): 50 | Plant response rating, Ducksalad (ducksalad; 250 g ai/ha, scale 0 to 100): 60 | Plant response rating, Barnyardgrass (barnyardgrass [17]; [22]): 0 | Plant response rating, Barnyardgrass (barnyardgrass [17]; [23]): 0 | Plant response rating, Barnyardgrass (barnyardgrass [17]; 125 g ai/ha, scale 0 to 100): 0 | Plant response rating, Barnyardgrass (barnyardgrass [17]; 250 g ai/ha, scale 0 to 100): 0

CCCc1cc(C(=O)NCC)nn1Cc1cccc(C(F)(F)F)c1 [Compound 29]
Barnyardgrass plant response rating (barnyardgrass [1]; [24]): 50 | Crabgrass, Large plant response rating (crabgrass, large [2]; [24]): 100 | Foxtail, Giant plant response rating (foxtail, giant [3]; [24]): 80 | Morningglory plant response rating (morningglory [4]; [24]): 60 | Pigweed plant response rating (pigweed [5]; [24]): 90 | Velvetleaf plant response rating (velvetleaf [6]; [24]): 40 | Wheat plant response rating (wheat [7]; [24]): 10 | Corn plant response rating (corn [8]; [24]): 0 | Barnyardgrass plant response rating (barnyardgrass [9]; [25]): 80 | Crabgrass, Large plant response rating (crabgrass, large [10]; [26]): 70 | Foxtail, Giant plant response rating (foxtail, giant [11]; [26]): 90 | Morningglory plant response rating (morningglory [12]; [26]): 90 | Pigweed plant response rating (pigweed [13]; [26]): 100 | Velvetleaf plant response rating (velvetleaf [14]; [26]): 100 | Wheat plant response rating (wheat [15]; [26]): 40 | Corn plant response rating (corn [16]; [26]): 50 | Plant response rating, Rice (rice; [22]): 0 | Plant response rating, Rice (rice; [23]): 0 | Plant response rating, Rice (rice; 125 g ai/ha, scale 0 to 100): 0 | Plant response rating, Rice (rice; 250 g ai/ha, scale 0 to 100): 0 | Plant response rating, Sedge, Umbrella (sedge, umbrella; [22]): 0 | Plant response rating, Sedge, Umbrella (sedge, umbrella; [23]): 0 | Plant response rating, Sedge, Umbrella (sedge, umbrella; 125 g ai/ha, scale 0 to 100): 75 | Plant response rating, Sedge, Umbrella (sedge, umbrella; 250 g ai/ha, scale 0 to 100): 80 | Plant response rating, Ducksalad (ducksalad; [22]): 0 | Plant response rating, Ducksalad (ducksalad; [23]): 0 | Plant response rating, Ducksalad (ducksalad; 125 g ai/ha, scale 0 to 100): 85 | Plant response rating, Ducksalad (ducksalad; 250 g ai/ha, scale 0 to 100): 85 | Plant response rating, Barnyardgrass (barnyardgrass [17]; [22]): 0 | Plant response rating, Barnyardgrass (barnyardgrass [17]; [23]): 0 | Plant response rating, Barnyardgrass (barnyardgrass [17]; 125 g ai/ha, scale 0 to 100): 0 | Plant response rating, Barnyardgrass (barnyardgrass [17]; 250 g ai/ha, scale 0 to 100): 20

CCCc1cc(C(=O)NC2CC2)nn1Cc1cccc(C(F)(F)F)c1 [Compound 30]
Barnyardgrass plant response rating (barnyardgrass [1]; [24]): 90 | Crabgrass, Large plant response rating (crabgrass, large [2]; [24]): 100 | Foxtail, Giant plant response rating (foxtail, giant [3]; [24]): 100 | Morningglory plant response rating (morningglory [4]; [24]): 60 | Pigweed plant response rating (pigweed [5]; [24]): 30 | Velvetleaf plant response rating (velvetleaf [6]; [24]): 30 | Wheat plant response rating (wheat [7]; [24]): 10 | Corn plant response rating (corn [8]; [24]): 20 | Barnyardgrass plant response rating (barnyardgrass [9]; [25]): 70 | Crabgrass, Large plant response rating (crabgrass, large [10]; [26]): 90 | Foxtail, Giant plant response rating (foxtail, giant [11]; [26]): 100 | Morningglory plant response rating (morningglory [12]; [26]): 100 | Pigweed plant response rating (pigweed [13]; [26]): 100 | Velvetleaf plant response rating (velvetleaf [14]; [26]): 100 | Wheat plant response rating (wheat [15]; [26]): 40 | Corn plant response rating (corn [16]; [26]): 40 | Plant response rating, Rice (rice; [22]): 0 | Plant response rating, Rice (rice; [23]): 0 | Plant response rating, Rice (rice; 125 g ai/ha, scale 0 to 100): 0 | Plant response rating, Rice (rice; 250 g ai/ha, scale 0 to 100): 0 | Plant response rating, Sedge, Umbrella (sedge, umbrella; [22]): 0 | Plant response rating, Sedge, Umbrella (sedge, umbrella; [23]): 0 | Plant response rating, Sedge, Umbrella (sedge, umbrella; 125 g ai/ha, scale 0 to 100): 0 | Plant response rating, Sedge, Umbrella (sedge, umbrella; 250 g ai/ha, scale 0 to 100): 80 | Plant response rating, Ducksalad (ducksalad; [22]): 60 | Plant response rating, Ducksalad (ducksalad; 125 g ai/ha, scale 0 to 100): 80 | Plant response rating, Ducksalad (ducksalad; 250 g ai/ha, scale 0 to 100): 100 | Plant response rating, Barnyardgrass (barnyardgrass [17]; [22]): 0 | Plant response rating, Barnyardgrass (barnyardgrass [17]; [23]): 0 | Plant response rating, Barnyardgrass (barnyardgrass [17]; 125 g ai/ha, scale 0 to 100): 0 | Plant response rating, Barnyardgrass (barnyardgrass [17]; 250 g ai/ha, scale 0 to 100): 20
